Numbers after ± are expanded uncertainties.
Assay: mn = molality of the nth substance listed, in mol/kg
Settings: 350 kPa, Liquid

O=[N+]([O-])[O-].O=[N+]([O-])[O-].[Ba+2] [barium dinitrate] + O
apparent molar volume [m3/mol]
Settings	m1 = 0.02026	m1 = 0.0208	m1 = 0.03085	m1 = 0.0401	m1 = 0.05028	m1 = 0.07046	m1 = 0.1005	m1 = 0.1931
278.15 K	3.67e-05 ± 2.7e-06	3.55e-05 ± 1.8e-06	3.91e-05 ± 1.4e-06	3.99e-05 ± 1e-06	3.81e-05 ± 3.6e-06	4.19e-05 ± 2.6e-06	4.18e-05 ± 1.9e-06	4.43e-05 ± 9e-07
283.15 K	3.99e-05 ± 2.4e-06	3.77e-05 ± 1.1e-06	4.13e-05 ± 1.5e-06	4.27e-05 ± 1e-06	4.16e-05 ± 2.5e-06	4.41e-05 ± 1.9e-06	4.44e-05 ± 1.5e-06	4.63e-05 ± 9e-07
288.15 K	4.18e-05 ± 1.6e-06	4.07e-05 ± 9e-07	4.28e-05 ± 1.3e-06	4.4e-05 ± 1e-06	4.39e-05 ± 1.4e-06	4.53e-05 ± 1.2e-06	4.59e-05 ± 1e-06	4.77e-05 ± 9e-07
298.15 K	4.32e-05 ± 2.1e-06	4.44e-05 ± 1e-06	4.64e-05 ± 1.1e-06	4.8e-05 ± 1.2e-06	4.82e-05 ± 9e-07	4.84e-05 ± 9e-07	4.9e-05 ± 9e-07	5.08e-05 ± 9e-07
308.15 K	4.53e-05 ± 1.6e-06	4.61e-05 ± 1e-06	4.89e-05 ± 1.1e-06	5.05e-05 ± 9e-07	5.07e-05 ± 9e-07	5.07e-05 ± 9e-07	5.12e-05 ± 9e-07	5.3e-05 ± 8e-07
318.15 K	4.89e-05 ± 1.6e-06	4.77e-05 ± 2.9e-06	4.97e-05 ± 1.4e-06	5.24e-05 ± 9e-07	5.25e-05 ± 1e-06	5.26e-05 ± 9e-07	5.27e-05 ± 9e-07	5.48e-05 ± 8e-07
328.15 K	5.14e-05 ± 1.1e-06	5.01e-05 ± 1.2e-06	5.17e-05 ± 1.1e-06	5.39e-05 ± 9e-07	5.38e-05 ± 1.1e-06	5.39e-05 ± 1e-06	5.38e-05 ± 9e-07	5.57e-05 ± 8e-07
338.15 K	5.31e-05 ± 1.9e-06	5.15e-05 ± 1.1e-06	5.29e-05 ± 1.2e-06	5.46e-05 ± 9e-07	5.43e-05 ± 1.2e-06	5.46e-05 ± 1e-06	5.47e-05 ± 9e-07	5.66e-05 ± 8e-07
348.15 K	5.4e-05 ± 2.7e-06	5.21e-05 ± 9e-07	5.35e-05 ± 1.2e-06	5.52e-05 ± 9e-07	5.49e-05 ± 1e-06	5.51e-05 ± 9e-07	5.52e-05 ± 9e-07	5.71e-05 ± 9e-07
358.15 K	5.5e-05 ± 2.1e-06	5.21e-05 ± 9e-07	5.38e-05 ± 1.1e-06	5.49e-05 ± 1.1e-06	5.53e-05 ± 1.3e-06	5.51e-05 ± 1.1e-06	5.54e-05 ± 1e-06	5.73e-05 ± 8e-07
368.15 K	4.76e-05 ± 8e-06	5.17e-05 ± 9e-07	5.39e-05 ± 1.4e-06	5.44e-05 ± 9e-07	5.5e-05 ± 9e-07	5.46e-05 ± 8e-07	5.5e-05 ± 8e-07	5.71e-05 ± 9e-07

From the NIST ThermoML archive (doi:10.1016/j.jct.2004.01.003)
